Earlier results, collected in patent US20260157999A1, “[…] OF ALKALOID COMPOUNDS AND […] USES THEREOF” (Sensorium Therapeutics, Inc., priority 2021, published 2026).

Conditions: described pharmacokinetics, rapid metabolism and excretion

For `COc1ccc(C23CCC(=O)CC2N(C)CC3)cc1OC` (stereo not shown) [Mesembrine, 3a-(3,4-dimethoxyphenyl)-octahydro-1-methyl-6H-indol-6-one], the half-life in plasma is listed as “less than 2 hours”.
